# US4469706A, “Selective beta-2 adrenergic antagonists for the treatment of glaucoma” (priority 1982, dated 1984)
# Counter-ions that a name gives are not always drawn. Like-named read-outs stand apart in the source and are kept apart here.
# How the values were obtained:
# [1] = biological target: T1, beta-adrenergic sensitive adenylate cyclase present in mammalian choroid plexus (Felis catus, UniProt Q9TST5); assay: Choroid plexus adenylate cyclase activity; format: biochemical
# T1 construct: are prepared from the various tissues to be studied (e.g., ciliary process, choroid plexus, heart or lung); from tissue; host or cells: choroid plexus (homogenate or washed particulate)
# [2] = system: ciliary body adenylate cyclase; assay: Ciliary body adenylate cyclase stimulation; format: biochemical
# Source text: (§1) The discovery that the ciliary process of the mammalian eye contains β2 -adrenergic receptors is based on the technique of measuring adenylate cyclase, an enzyme which synthesizes cyclic AMP from ATP. It has been established that receptor binding of beta adrenergic agonists is associated with a concomitant activation of adenylate cyclase. (Robison, G. A., et al, Cyclic AMP, Academic Press, New York, 1971, and Wolfe, B. B., et al, Annual Reviews of Pharmacology and Toxicology, 17:575-604 (1977)). […] Beta adrenergic sensitive adenylate cyclase activity was thus identified and characterized in the ocular tissues of several mammalian species such as rabbits, cats, dogs, monkeys and humans. After isolation of the ciliary process, adenylate cyclase activity was measured, and its activation by agonists or inhibition by antagonists was measured. […].
# (§2) For ciliary body, maximal stimulation was 15% of the stimulation seen in the ciliary process, and for iris, maximal stimulation was 22% for that seen in the ciliary process. […];
# [3] = system: iris adenylate cyclase; assay: Iris adenylate cyclase stimulation; format: biochemical
# Source text: as §1, §2
# [4] = biological target: T2, rabbit ciliary process adenylate cyclase (Oryctolagus cuniculus, UniProt G1TAV7); assay: Rabbit ciliary process beta-adrenergic sensitive adenylate cyclase activity; format: biochemical; details: for Ki: antagonists, inhibition of isoproterenol-stimulated activity, Table I, read-out: Adenylate Cyclase Ki, Ciliary Process Rabbit (B)
# T2 construct: After isolation of the ciliary process, adenylate cyclase activity was measured; from tissue; host or cells: rabbit ciliary process
# [5] = system: intraocular pressure in rabbit eyes
# [6] = system: cardioacceleratory effect of isoproterenol; details: subcutaneous antagonist 30 minutes before 3 micrograms/kg subcutaneous isoproterenol; rabbits
# [7] = biological target: heart adenylate cyclase; assay: Heart adenylate cyclase activation and inhibition; format: biochemical, mammalian; details: antagonists; Table I; ** data from the present inventor, method (a); read-out: Adenylate Cyclase Ki, Heart (G)
# [8] = biological target: T3, human ciliary process beta-adrenergic receptors (Homo sapiens, UniProt P07550); assay: biochemical
# T3 construct: ciliary process from human donor eyes was assayed biochemically; from tissue; host or cells: ciliary process from human donor eyes
# [9] = system: rabbit ciliary process adenylate cyclase; assay: Rabbit ciliary process beta-adrenergic sensitive adenylate cyclase activity; format: biochemical; details: Table I columns B (rabbit ciliary process) and G
# [10] = biological target: beta1 -adrenergic receptor present in mammalian heart; details: Table I; Minneman et al; read-out: Kd for IHYP Binding, Heart (E); cited from earlier work
# [11] = system: intraocular pressure above normal; assay: Alpha chymotrypsin-induced glaucoma in rabbits; format: in vivo, rabbit; details: compared with timolol
# Source text: This effect is also observed under conditions of elevated pressure.
# [12] = biological target: T4, heart adenylate cyclase (Rattus norvegicus, UniProt P18090); details: agonists; Table I; Minneman et al; NE = no effect as agonist; cited from earlier work
# T4 construct: are prepared from the various tissues to be studied (e.g., ciliary process, choroid plexus, heart or lung); from tissue; host or cells: heart (homogenate or washed particulate)
# [13] = antagonists, Table I, read-out: Adenylate Cyclase Ki, Choroid Plexus (C)
# [14] = 0.5% topical to ipsilateral eye
# [15] = 0.5% topical, two 50 microliter doses, 2 and 3 hours after application
# T2 sequence (G1TAV7 1-437): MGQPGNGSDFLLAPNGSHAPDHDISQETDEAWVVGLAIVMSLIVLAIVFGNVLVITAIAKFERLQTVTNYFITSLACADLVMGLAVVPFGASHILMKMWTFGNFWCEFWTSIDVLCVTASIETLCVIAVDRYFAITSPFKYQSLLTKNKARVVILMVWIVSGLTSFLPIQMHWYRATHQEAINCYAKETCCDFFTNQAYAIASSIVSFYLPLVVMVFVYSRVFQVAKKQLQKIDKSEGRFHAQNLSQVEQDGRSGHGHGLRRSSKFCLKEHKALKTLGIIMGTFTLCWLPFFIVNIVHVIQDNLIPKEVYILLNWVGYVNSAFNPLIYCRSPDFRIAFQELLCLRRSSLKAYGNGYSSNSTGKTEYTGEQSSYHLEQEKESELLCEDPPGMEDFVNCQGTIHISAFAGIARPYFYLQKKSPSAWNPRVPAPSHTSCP
# T1 sequence (Q9TST5 whole entry): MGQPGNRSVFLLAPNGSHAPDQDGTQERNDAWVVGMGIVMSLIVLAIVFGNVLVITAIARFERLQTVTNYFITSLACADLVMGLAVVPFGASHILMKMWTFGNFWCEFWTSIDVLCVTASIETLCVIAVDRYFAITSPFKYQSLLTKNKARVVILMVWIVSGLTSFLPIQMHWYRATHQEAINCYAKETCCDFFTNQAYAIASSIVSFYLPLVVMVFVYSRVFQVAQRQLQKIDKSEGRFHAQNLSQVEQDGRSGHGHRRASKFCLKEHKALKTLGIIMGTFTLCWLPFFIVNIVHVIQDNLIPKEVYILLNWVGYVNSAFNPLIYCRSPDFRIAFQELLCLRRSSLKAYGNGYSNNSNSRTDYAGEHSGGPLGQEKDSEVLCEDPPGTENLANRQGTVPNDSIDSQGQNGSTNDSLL
# T3 sequence (P07550 whole entry): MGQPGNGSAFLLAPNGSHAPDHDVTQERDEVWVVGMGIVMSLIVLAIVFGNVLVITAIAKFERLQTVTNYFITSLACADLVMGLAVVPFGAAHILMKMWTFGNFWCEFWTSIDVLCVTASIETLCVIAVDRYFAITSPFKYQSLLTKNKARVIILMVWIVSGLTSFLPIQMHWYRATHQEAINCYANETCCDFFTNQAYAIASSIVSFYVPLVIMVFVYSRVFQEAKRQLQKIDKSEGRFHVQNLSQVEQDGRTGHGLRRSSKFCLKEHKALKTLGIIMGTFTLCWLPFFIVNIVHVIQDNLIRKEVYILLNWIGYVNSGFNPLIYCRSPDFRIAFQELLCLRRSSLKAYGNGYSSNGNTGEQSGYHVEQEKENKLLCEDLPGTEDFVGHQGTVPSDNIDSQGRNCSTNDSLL
# T4 sequence (P18090 whole entry): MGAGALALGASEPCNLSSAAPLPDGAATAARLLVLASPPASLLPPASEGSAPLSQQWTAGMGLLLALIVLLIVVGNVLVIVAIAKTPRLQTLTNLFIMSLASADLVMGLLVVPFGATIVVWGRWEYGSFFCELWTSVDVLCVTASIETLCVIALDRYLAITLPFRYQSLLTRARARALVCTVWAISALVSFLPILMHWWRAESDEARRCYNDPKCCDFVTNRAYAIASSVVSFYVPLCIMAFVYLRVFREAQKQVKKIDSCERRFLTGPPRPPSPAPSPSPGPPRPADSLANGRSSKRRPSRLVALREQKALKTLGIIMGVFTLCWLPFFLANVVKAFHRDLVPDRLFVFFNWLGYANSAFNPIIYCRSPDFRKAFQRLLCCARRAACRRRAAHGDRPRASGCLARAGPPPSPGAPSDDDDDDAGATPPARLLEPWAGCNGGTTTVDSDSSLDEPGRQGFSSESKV
compound,measurement,setting,value
CC(C)NCC(O)c1ccc(O)c(O)c1 (stereo not drawn) [Isoproterenol],EC50,[1],140 nM
same,"Maximal stimulation, of the stimulation seen in the ciliary process",[2],15%
same,"Maximal stimulation, of that seen in the ciliary process",[3],22%
"Cc1ccc(OCC(O)C(C)NC(C)C)c2c1CCC2 (stereo not drawn) [ICI 118,551]",Ki,[4],3 nM
same,Ocular irritative effects,"[5]; rabbit, in vivo",little ocular irritative effects
same,Decrease in intraocular pressure compared with timolol,"[5]; topical 50 μl of a 1% solution, 6 hours, N=12 double blind crossover",both a greater decrease as well as a more prolonged decrease in intraocular pressure than did timolol
same,IC50 for blocking isoproterenol-induced increase in heart rate,[6],140 micrograms/kg
same,Ki,[7],1760 nM
"Cc1ccc(C(O)C(C)NC(C)C)cc1 (stereo not drawn) [H35/25, 1(4'-methylphenyl)-2-isopropyl amino propanol]",Ki,[1],140 nM
same,Ki,[4],700 nM
same,Ki,"[8]; antagonists, inhibition of isoproterenol-stimulated activity, Table I column A, read-out: Adenylate Cyclase Ki, Ciliary Process Human (A)",740 nM
same,beta2/beta1 Potency Ratio,"[8]; human ciliary process, Table 3",8.8
same,Ki,"[8]; human ciliary process, Table 3, read-out: Ki for Isoproterenol-Stimulated Adenylate Cyclase",740 nM
same,Ki,"[8]; inhibition of isoproterenol stimulation of human ciliary process adenylate cyclase, read-out: calculated inhibitory constant (Ki)",740 nM
COc1ccc(OC)c(C(O)C(C)NC(C)(C)C)c1 (stereo not drawn) [Butoxamine],Ki,[1]; [13],1500 nM
same,Ki,[4],1530 nM
same,β2/β1 potency ratio (Ki heart/Ki ciliary process),[9],9.8
same,Kd,[10],7030 nM
same,Ki,[7],15000 nM
"CC(C)(C)NC[C@H](O)COc1nsnc1N1CCOCC1 [Timolol, timolol]",Ki,[4],6.4 nM
same,Change of IOP in the contralateral eye,[5]; [14],significant decrease in IOP in the contralateral eye
same,Change of IOP in ipsilateral eyes compared to predrug readings,[5]; [15],significant decrease in IOP in ipsilateral eyes
same,Change of IOP in ipsilateral eyes compared to predrug readings,"[5]; 0.5% topical, 1 hour after application",also caused a significant decrease at 1 hour
same,Pupillary diameter and overt ocular toxicity,"[5]; rabbit, in vivo",no significant changes in pupillary diameter nor overt ocular toxicity
same,IC50 for blocking isoproterenol-induced increase in heart rate,[6],2.2 micrograms/kg
same,Ki,[7],20 nM
NC[C@H](O)c1ccc(O)c(O)c1 [Norepinephrine],EC50,"[1]; agonists, Table I, read-out: Adenylate Cyclase Ka, Choroid Plexus (C)",25000 nM
same,EC50,[4],29000 nM
same,Kd,[10],820 nM
"CC(C)(C)NCC(O)CON=C1c2ccccc2-c2ccccc21 (stereo not drawn) [IPS 339, (t-butyl-amino 3-ol-2-propyl) oximino-9 fluorene, hydrochloride]",Ki,[1],1.9 nM
same,Change of IOP in the contralateral eye,[5]; [14],significant decrease in IOP in the contralateral eye
same,Magnitude of contralateral IOP effect compared with timolol,[5]; [14],somewhat less for IPS 339 than for timolol
same,Change of IOP in ipsilateral eyes compared to predrug readings,[5]; [15],significant decrease in IOP in ipsilateral eyes
same,Extent of IOP decrease compared with timolol,"[5]; 0.5% topical, at 3 hours",significantly more than that caused by timolol
same,Pupillary diameter and overt ocular toxicity,"[5]; rabbit, in vivo",no significant changes in pupillary diameter nor overt ocular toxicity
same,Kd,[10],10 nM
same,Ki,[7],1120 nM
same,Intraocular pressure above normal,[11],decreased significantly
CNC[C@H](O)c1ccc(O)c(O)c1 [Epinephrine],EC50,[1],1550 nM
same,EC50,[4],2400 nM
same,"Adenylate Cyclase Ka, Heart (G)",[12],1.5 µM
"CC(C)NCC(O)COc1ccc(CC(N)=O)cc1 (stereo not drawn) [Atenolol, atenolol]",Ki,[1]; [13],5800 nM
same,Ki,[4],21000 nM
same,Ki,[7],2700 nM
"CC(=O)Nc1ccc(OCC(O)CNC(C)C)cc1 (stereo not drawn) [Practolol, practolol]",Ki,[1]; [13],8900 nM
same,Ki,[4],39000 nM
same,Kd,[10],1100 nM
same,Ki,[7],5500 nM
